The target in one test is PKCθ (Homo sapiens, UniProt Q04759). As to the kind of experiment: PKC binding assay, competition with 3H-PDBu.
For another test, the target named is PKCβI (Homo sapiens, UniProt P05771). Put plainly: PKC binding assay, competition with 3H-PDBu.
The target in a further test is T1, PKCε (Homo sapiens, UniProt Q02156).
T1 sequence (Q02156 1-737): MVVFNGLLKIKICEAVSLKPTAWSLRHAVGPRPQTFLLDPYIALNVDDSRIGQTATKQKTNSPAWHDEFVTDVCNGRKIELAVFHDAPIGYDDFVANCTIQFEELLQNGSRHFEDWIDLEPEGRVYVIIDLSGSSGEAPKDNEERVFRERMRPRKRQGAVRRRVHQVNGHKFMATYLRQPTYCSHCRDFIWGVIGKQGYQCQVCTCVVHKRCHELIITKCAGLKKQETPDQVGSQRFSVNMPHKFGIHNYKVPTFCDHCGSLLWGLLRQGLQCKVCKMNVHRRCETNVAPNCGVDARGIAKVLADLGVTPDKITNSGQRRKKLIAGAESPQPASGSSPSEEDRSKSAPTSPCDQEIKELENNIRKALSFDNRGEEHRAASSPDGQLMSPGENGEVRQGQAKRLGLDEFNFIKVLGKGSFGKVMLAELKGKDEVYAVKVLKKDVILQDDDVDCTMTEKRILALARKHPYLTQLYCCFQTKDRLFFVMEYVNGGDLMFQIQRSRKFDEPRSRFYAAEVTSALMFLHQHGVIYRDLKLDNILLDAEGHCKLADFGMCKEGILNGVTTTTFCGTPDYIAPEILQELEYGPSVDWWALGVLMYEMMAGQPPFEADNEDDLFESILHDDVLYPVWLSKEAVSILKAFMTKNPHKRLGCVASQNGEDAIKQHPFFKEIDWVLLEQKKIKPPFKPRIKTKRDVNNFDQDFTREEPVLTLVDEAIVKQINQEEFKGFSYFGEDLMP
Put plainly: PKC binding assay, competition with 3H-PDBu.

A further test deals with PKC isoforms. As to the kind of experiment: Cell-free competitive PKC binding, statements across isoforms. On the set-up: species or system human. The settings on record: five PKC isoforms.
In another test the target is PKCδ (Homo sapiens, UniProt Q05655). As to the kind of experiment: PKC binding assay, competition with 3H-PDBu.
PKCδ, sequence (Q05655 whole entry): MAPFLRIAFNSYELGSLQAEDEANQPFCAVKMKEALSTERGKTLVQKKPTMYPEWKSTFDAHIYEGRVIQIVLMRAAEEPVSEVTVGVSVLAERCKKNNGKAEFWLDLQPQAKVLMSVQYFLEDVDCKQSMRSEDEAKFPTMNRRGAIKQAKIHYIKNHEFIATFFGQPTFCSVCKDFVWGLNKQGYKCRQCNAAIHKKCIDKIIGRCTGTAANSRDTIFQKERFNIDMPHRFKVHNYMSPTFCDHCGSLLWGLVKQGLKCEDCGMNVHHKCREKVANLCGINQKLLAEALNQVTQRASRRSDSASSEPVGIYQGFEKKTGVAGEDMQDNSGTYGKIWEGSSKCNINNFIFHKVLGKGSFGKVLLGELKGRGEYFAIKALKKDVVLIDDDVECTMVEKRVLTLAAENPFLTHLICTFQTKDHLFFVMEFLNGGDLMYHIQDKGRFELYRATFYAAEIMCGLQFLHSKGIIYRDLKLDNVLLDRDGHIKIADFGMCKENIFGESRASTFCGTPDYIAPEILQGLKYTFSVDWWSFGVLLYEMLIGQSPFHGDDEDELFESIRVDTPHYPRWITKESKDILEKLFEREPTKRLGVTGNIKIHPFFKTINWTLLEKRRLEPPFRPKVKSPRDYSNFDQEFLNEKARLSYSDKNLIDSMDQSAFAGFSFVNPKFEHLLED
In the next test the target is PKCα (Homo sapiens, UniProt P17252). As to the kind of experiment: biochemical. The format is binding.

As usually defined, the Ki is the equilibrium dissociation constant of an inhibitor or competing ligand from its target. Read a high Ki as lower affinity.

PKCθ, sequence (Q04759 whole entry): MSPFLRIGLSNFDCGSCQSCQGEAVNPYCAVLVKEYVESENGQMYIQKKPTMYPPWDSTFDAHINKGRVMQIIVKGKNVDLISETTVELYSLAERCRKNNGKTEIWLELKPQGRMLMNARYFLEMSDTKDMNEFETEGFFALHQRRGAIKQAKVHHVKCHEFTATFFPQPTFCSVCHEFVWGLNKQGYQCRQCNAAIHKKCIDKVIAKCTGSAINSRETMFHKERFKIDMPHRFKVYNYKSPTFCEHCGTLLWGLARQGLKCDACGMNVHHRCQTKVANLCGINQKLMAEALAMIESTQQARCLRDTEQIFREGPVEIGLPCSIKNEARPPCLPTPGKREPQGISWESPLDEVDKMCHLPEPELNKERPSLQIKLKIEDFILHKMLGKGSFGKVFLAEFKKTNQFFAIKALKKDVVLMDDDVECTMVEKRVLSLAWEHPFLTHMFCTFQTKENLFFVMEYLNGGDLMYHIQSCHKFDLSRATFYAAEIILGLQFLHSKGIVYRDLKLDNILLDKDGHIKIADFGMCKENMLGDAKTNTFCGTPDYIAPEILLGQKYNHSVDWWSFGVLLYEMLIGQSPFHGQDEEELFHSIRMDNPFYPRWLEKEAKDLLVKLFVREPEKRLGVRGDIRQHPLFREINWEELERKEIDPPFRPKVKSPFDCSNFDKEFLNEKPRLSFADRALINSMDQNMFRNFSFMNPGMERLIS
PKCβI, sequence (P05771 whole entry): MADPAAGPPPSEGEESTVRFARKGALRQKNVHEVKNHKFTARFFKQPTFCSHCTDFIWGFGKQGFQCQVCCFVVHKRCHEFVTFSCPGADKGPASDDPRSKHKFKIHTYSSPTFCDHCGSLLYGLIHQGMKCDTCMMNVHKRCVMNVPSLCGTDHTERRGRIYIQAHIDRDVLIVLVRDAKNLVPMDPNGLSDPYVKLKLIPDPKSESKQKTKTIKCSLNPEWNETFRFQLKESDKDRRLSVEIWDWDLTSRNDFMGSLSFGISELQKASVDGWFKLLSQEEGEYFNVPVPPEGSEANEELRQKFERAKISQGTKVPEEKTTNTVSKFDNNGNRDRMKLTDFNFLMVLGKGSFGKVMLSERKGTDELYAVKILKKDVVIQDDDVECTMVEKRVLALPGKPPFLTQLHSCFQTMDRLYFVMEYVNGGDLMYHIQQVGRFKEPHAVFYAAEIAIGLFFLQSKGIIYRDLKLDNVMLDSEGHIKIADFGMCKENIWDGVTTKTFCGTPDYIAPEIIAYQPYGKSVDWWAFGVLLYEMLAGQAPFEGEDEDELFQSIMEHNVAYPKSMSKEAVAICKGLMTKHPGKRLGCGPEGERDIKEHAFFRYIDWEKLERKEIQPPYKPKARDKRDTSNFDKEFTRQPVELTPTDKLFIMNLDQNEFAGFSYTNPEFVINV

In the case of `CCCCCCCC(=O)O[C@H]1/C(=C/C(=O)OC)C[C@H]2C[C@H](CO)OC(=O)CCCC(=O)OCC(C)(C)[C@]1(O)O2` [7a, (1S,3R,13S,14S,E)-13-Hydroxy-3-(hydroxymethyl)-15-(2-methoxy-2-oxoethylidene)-12,12-dimethyl-5,9-dioxo-4,10,17-trioxabicyclo[11.3.1]heptadecan-14-yl Octanoate], the Ki on PKCθ amounted to 1.5 nM; on PKCβI, 4 nM; on PKCε, 2.7 nM; on PKCδ, 1.7 nM; at PKCα it was 4.4 nM. For the same compound, in the test on PKC isoforms, the “PKC binding affinities” value is “comparable to bryostatin”.
`CCCCCCCC(=O)O[C@H]1/C(=C/C(=O)OC)C[C@H]2C[C@H]([C@@H](C)O)OC(=O)CCCC(=O)OCC(C)(C)[C@]1(O)O2` [7b, (1S,3R,13S,14S,E)-13-Hydroxy-3-((R)-1-hydroxyethyl)-15-(2-methoxy-2-oxoethylidene)-12,12-dimethyl-5,9-dioxo-4,10,17-trioxabicyclo[11.3.1]heptadecan-14-yl Octanoate]: in the test with PKC isoforms, the “PKC binding affinities” value is “strongly attenuated binding affinity relative to the des-methyl compound 7a”.
As for `CCC/C=C/C=C/C(=O)O[C@H]1/C(=C/C(=O)OC)C[C@H]2C[C@H]([C@@H](C)O)OC(=O)C[C@H](O)C[C@@H]3C[C@H](OC(C)=O)C(C)(C)[C@](O)(C[C@@H]4C/C(=C/C(=O)OC)C[C@H](/C=C/C(C)(C)[C@]1(O)O2)O4)O3` [bryostatin 1, Bryostatin 1, reference compound], the Ki at PKCθ worked out at 1.5 nM; at PKCε it was 3 nM.

(Values after publication PMC13186263 (The Journal of organic chemistry, 2020).)
